*1 amine or outer side, *2 acyl side, *3 side chain or, on linkers, in order; H or OH if unused. Where a SMILES comes first, the peptide text is derived from it. Side-chain parts run from the residue outwards. [ ]: non-standard residue; d: D form. The star is where a group is joined. C18 diacid = O=C(O)CCCCCCCCCCCCCCCCC(=O)*; C16 diacid = O=C(O)CCCCCCCCCCCCCCC(=O)*; γGlu = O=C(O)[C@H](CCC(=O)[*:2])N[*:1]; NMeI = CC[C@H](C)[C@H](NC)C(=O)O; αMeL = CC(C)C[C@](C)(N)C(=O)O; NMeV = CN[C@H](C(=O)O)C(C)C; Api = NC1(C(=O)O)CCNCC1; Pentanoyl = CCCCC(=O)*; AEEA = NCCOCCOCC(=O)O; Aib = CC(C)(N)C(=O)O
Columns and labels:
CFR1R receptor = target: T1, CFR1R receptor (Homo sapiens, UniProt P34998); assay: Activity at anti-target CFR1R receptor, cAMP assay in CRF1R-overexpression CHO-K1 cells; type: cell-based; conditions: 100% = Sauvagine at 100 nM; for EC50: cAMP
T1 construct: host or cells: CHO-K1 (clone 2)
T1 sequence (P34998 24-415): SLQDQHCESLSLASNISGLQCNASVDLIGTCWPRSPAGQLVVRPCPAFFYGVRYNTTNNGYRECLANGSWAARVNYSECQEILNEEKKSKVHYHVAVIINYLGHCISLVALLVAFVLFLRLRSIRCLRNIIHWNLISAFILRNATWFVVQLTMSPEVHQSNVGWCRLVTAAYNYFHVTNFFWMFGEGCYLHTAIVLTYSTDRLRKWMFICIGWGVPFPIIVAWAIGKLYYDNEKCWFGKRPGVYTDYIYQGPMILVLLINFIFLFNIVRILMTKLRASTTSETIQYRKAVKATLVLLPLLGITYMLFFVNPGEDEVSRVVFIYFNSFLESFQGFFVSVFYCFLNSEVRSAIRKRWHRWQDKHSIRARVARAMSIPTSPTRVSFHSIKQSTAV
Outline: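 The method mirrors that used with TeloHAEC cells. Here, thawed clone 2 cells seeded at 4000 cells/well are tested, and 100 nM Sauvagine sets the top of the activation scale.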

human CRF2a receptor = target: T2, human CRF2a receptor (Homo sapiens, UniProt Q13324); assay: Activity at human CRF2a receptor, cAMP functional assay in TeloHEAC cells; type: cell-based; conditions: TeloHEAC cells stably expressing human CRF2a receptor, relative to urocortin 2 (100 nM = 100%)
T2 construct: expressed in transfected cells; host or cells: TeloHEAC cells
T2 sequence (Q13324 1-411): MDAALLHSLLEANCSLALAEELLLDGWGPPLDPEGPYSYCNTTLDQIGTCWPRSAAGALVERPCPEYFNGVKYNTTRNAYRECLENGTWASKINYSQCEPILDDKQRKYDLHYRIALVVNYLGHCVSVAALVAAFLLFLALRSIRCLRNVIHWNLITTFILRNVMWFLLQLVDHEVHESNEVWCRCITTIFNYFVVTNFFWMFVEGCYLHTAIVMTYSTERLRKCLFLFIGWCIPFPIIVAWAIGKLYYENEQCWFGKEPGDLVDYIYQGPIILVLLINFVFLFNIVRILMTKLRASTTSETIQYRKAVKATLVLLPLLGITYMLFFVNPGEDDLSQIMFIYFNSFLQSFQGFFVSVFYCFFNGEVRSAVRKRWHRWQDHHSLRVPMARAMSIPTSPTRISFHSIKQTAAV
Outline: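 cAMP accumulation was measured by HTRF 665/620 nm ratio after 30 min at 37° C compound exposure (16 twofold dilutions) of CRF2a-expressing TeloHEAC cells, 10000/well, in HEPES-buffered HBSS plus IBMX. Activity was normalised to urocortin 2 at 100 nM (100%), and EC50 was the concentration giving half-maximal activation.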

CC[C@H](C)[C@H](NC(=O)[C@H](CCC(N)=O)NC(=O)C(C)(C)NC(=O)[C@H](CC(N)=O)NC(=O)[C@@H](NC(=O)[C@H](CCC(=O)O)NC(=O)[C@H](C)NC(=O)[C@H](CCC(N)=O)NC(=O)[C@H](CCC(=O)O)NC(=O)[C@H](CCCNC(=N)N)NC(=O)[C@H](CCC(N)=O)NC(=O)[C@H](CCCCN)NC(=O)[C@H](CCCCN)NC(=O)[C@H](CCC(N)=O)NC(=O)[C@H](CCCCN)NC(=O)[C@H](CCC(=O)O)NC(=O)[C@H](CCC(N)=O)NC(=O)[C@H](CCC(=O)O)NC(=O)[C@H](CC(C)C)NC(=O)[C@H](CC(C)C)NC(=O)[C@@H](NC(=O)[C@H](CCCCN)NC(=O)[C@H](CCCCNC(=O)CC[C@H](NC(=O)CCCCCCCCCCCCCCC(=O)O)C(=O)O)NC(=O)[C@H](CC(C)C)NC(=O)[C@H](CCCCN)NC(=O)[C@@H](NC(=O)[C@@H]1CCCN1C(=O)[C@H](NC(=O)[C@H](CC(=O)O)NC(=O)[C@H](CC(C)C)NC(=O)[C@H](CO)NC(=O)[C@H](CC(C)C)NC(=O)[C@@H](NC)C(C)C)C(C)C)[C@@H](C)CC)[C@@H](C)CC)[C@@H](C)O)C(=O)N[C@@H](CC(C)C)C(=O)N[C@@H](C)C(=O)N[C@@H](CCC(N)=O)C(=O)N[C@H](C(N)=O)C(C)C [compound 159] (H-[NMeV]LSLD[dV]PIKLK([γGlu-C16 diacid])KILLEQEKQKKQREQAETN[Aib]QILAQV-NH2)
Emax (% I) (CFR1R receptor): 4 % I | EC50 (CFR1R receptor): > 250 nM | EC50 (human CRF2a receptor): 2.97 nM

CC[C@H](C)[C@H](NC)C(=O)N[C@H](C(=O)N[C@@H](CC(C)C)C(=O)N[C@@H](CO)C(=O)N[C@@H](CC(C)C)C(=O)N[C@@H](CC(=O)O)C(=O)N[C@@H](C(=O)N1CCC[C@H]1C(=O)N[C@H](C(=O)N[C@@H](CCCCN)C(=O)N[C@@H](CC(C)C)C(=O)N[C@@H](CCCCNC(=O)CC[C@H](NC(=O)CCCCCCCCCCCCCCC(=O)O)C(=O)O)C(=O)N[C@@H](CCCCN)C(=O)N[C@H](C(=O)N[C@@H](CC(C)C)C(=O)N[C@@H](CC(C)C)C(=O)N[C@@H](CCC(=O)O)C(=O)N[C@@H](CCC(N)=O)C(=O)N[C@@H](CCC(=O)O)C(=O)N[C@@H](CCCCN)C(=O)N[C@@H](CCC(N)=O)C(=O)N[C@@H](CCCCN)C(=O)N[C@@H](CCCCN)C(=O)N[C@@H](CCC(N)=O)C(=O)N[C@@H](CCCNC(=N)N)C(=O)N[C@@H](CCC(=O)O)C(=O)N[C@@H](CCC(N)=O)C(=O)N[C@@H](C)C(=O)N[C@@H](CCC(=O)O)C(=O)N[C@H](C(=O)N[C@@H](CC(N)=O)C(=O)NC1(C(=O)N[C@@H](CCC(N)=O)C(=O)N[C@H](C(=O)N[C@@H](CC(C)C)C(=O)N[C@@H](C)C(=O)N[C@@H](CCC(N)=O)C(=O)N[C@H](C(N)=O)C(C)C)[C@@H](C)CC)CCNCC1)[C@@H](C)O)[C@@H](C)CC)[C@@H](C)CC)C(C)C)C(C)C [compound 72] (H-[NMeI]VLSLD[dV]PIKLK([γGlu-C16 diacid])KILLEQEKQKKQREQAETN[Api]QILAQV-NH2)
Emax (% I) (CFR1R receptor): 18 % I | EC50 (CFR1R receptor): > 250 nM | EC50 (human CRF2a receptor): 0.14 nM

CCCCC(=O)N[C@H](C(=O)N[C@@H](CC(C)C)C(=O)N[C@@H](CO)C(=O)N[C@@H](CC(C)C)C(=O)N[C@@H](CC(=O)O)C(=O)N[C@@H](C(=O)N1CCC[C@H]1C(=O)N[C@H](C(=O)N[C@@H](CCCCN)C(=O)N[C@@](C)(CC(C)C)C(=O)N[C@@H](CCCCNC(=O)COCCOCCNC(=O)COCCOCCNC(=O)CC[C@H](NC(=O)CCCCCCCCCCCCCCCCC(=O)O)C(=O)O)C(=O)N[C@@H](CCCCN)C(=O)N[C@H](C(=O)N[C@@H](CC(C)C)C(=O)N[C@@H](CC(C)C)C(=O)N[C@@H](CCC(=O)O)C(=O)N[C@@H](CCC(N)=O)C(=O)N[C@@H](CCC(=O)O)C(=O)N[C@@H](CCCCN)C(=O)N[C@@H](CCC(N)=O)C(=O)N[C@@H](CCCCN)C(=O)N[C@@H](CCCCN)C(=O)N[C@@H](CCC(N)=O)C(=O)N[C@@H](CCCNC(=N)N)C(=O)N[C@@H](CCC(=O)O)C(=O)N[C@@H](CCC(N)=O)C(=O)N[C@@H](C)C(=O)N[C@@H](CCC(=O)O)C(=O)N[C@H](C(=O)N[C@@H](CC(N)=O)C(=O)NC(C)(C)C(=O)N[C@@H](CCC(N)=O)C(=O)N[C@H](C(=O)N[C@@H](CC(C)C)C(=O)N[C@@H](C)C(=O)N[C@@H](CCC(N)=O)C(=O)N[C@H](C(N)=O)C(C)C)[C@@H](C)CC)[C@@H](C)O)[C@@H](C)CC)[C@@H](C)CC)C(C)C)C(C)C [compound 123] (Pentanoyl-VLSLD[dV]PIK[αMeL]K([AEEA-AEEA-γGlu-C18 diacid])KILLEQEKQKKQREQAETN[Aib]QILAQV-NH2)
Emax (% I) (CFR1R receptor): 14 % I | EC50 (CFR1R receptor): > 250 nM | EC50 (human CRF2a receptor): 0.7 nM

CC[C@H](C)[C@H](NC(C)=O)C(=O)N[C@H](C(=O)N[C@@H](CC(C)C)C(=O)N[C@@H](CO)C(=O)N[C@@H](CC(C)C)C(=O)N[C@@H](CC(=O)O)C(=O)N[C@@H](C(=O)N1CCC[C@H]1C(=O)N[C@H](C(=O)N[C@@H](CCCCN)C(=O)N[C@@H](CC(C)C)C(=O)N[C@@H](CCCCNC(=O)CC[C@H](NC(=O)CCCCCCCCCCCCCCC(=O)O)C(=O)O)C(=O)N[C@@H](CCCCN)C(=O)N[C@H](C(=O)N[C@@H](CC(C)C)C(=O)N[C@@H](CC(C)C)C(=O)N[C@@H](CCC(=O)O)C(=O)N[C@@H](CCC(N)=O)C(=O)N[C@@H](CCC(=O)O)C(=O)N[C@@H](CCCCN)C(=O)N[C@@H](CCC(N)=O)C(=O)N[C@@H](CCCCN)C(=O)N[C@@H](CCCCN)C(=O)N[C@@H](CCC(N)=O)C(=O)N[C@@H](C)C(=O)N[C@@H](CCC(=O)O)C(=O)N[C@@H](CCC(N)=O)C(=O)N[C@@H](C)C(=O)N[C@@H](CCC(=O)O)C(=O)N[C@H](C(=O)N[C@@H](CC(N)=O)C(=O)NC(C)(C)C(=O)N[C@@H](CCC(N)=O)C(=O)N[C@H](C(=O)N[C@@H](CC(C)C)C(=O)N[C@@H](C)C(=O)N[C@@H](CCC(N)=O)C(=O)N[C@H](C(N)=O)C(C)C)[C@@H](C)CC)[C@@H](C)O)[C@@H](C)CC)[C@@H](C)CC)C(C)C)C(C)C [compound 167] (Ac-IVLSLD[dV]PIKLK([γGlu-C16 diacid])KILLEQEKQKKQAEQAETN[Aib]QILAQV-NH2)
Emax (% I) (CFR1R receptor): 7 % I | EC50 (CFR1R receptor): > 250 nM | EC50 (human CRF2a receptor): 1.15 nM

CC[C@H](C)[C@H](NC(C)=O)C(=O)N[C@H](C(=O)N[C@@H](CC(C)C)C(=O)N[C@@H](CO)C(=O)N[C@@H](CC(C)C)C(=O)N[C@@H](CC(=O)O)C(=O)N[C@@H](C(=O)N1CCC[C@H]1C(=O)N[C@H](C(=O)N[C@@H](CCCCN)C(=O)N[C@@H](CC(C)C)C(=O)N[C@@H](CCCCNC(=O)CC[C@H](NC(=O)CCCCCCCCCCCCCCC(=O)O)C(=O)O)C(=O)N[C@@H](CCCCN)C(=O)N[C@H](C(=O)N[C@@H](CC(C)C)C(=O)N[C@@H](CC(C)C)C(=O)N[C@@H](CCC(=O)O)C(=O)N[C@@H](CCC(N)=O)C(=O)N[C@@H](CCC(=O)O)C(=O)N[C@@H](CCCCN)C(=O)N[C@@H](CCC(N)=O)C(=O)N[C@@H](CCCCN)C(=O)NC(C)(C)C(=O)N[C@@H](CCC(N)=O)C(=O)N[C@@H](CCCNC(=N)N)C(=O)N[C@@H](CCC(=O)O)C(=O)N[C@@H](CCC(N)=O)C(=O)N[C@@H](C)C(=O)N[C@@H](CCC(=O)O)C(=O)N[C@H](C(=O)N[C@@H](CC(N)=O)C(=O)NC(C)(C)C(=O)N[C@@H](CCC(N)=O)C(=O)N[C@H](C(=O)N[C@@H](CC(C)C)C(=O)N[C@@H](C)C(=O)N[C@@H](CCC(N)=O)C(=O)N[C@H](C(N)=O)C(C)C)[C@@H](C)CC)[C@@H](C)O)[C@@H](C)CC)[C@@H](C)CC)C(C)C)C(C)C [compound 162] (Ac-IVLSLD[dV]PIKLK([γGlu-C16 diacid])KILLEQEKQK[Aib]QREQAETN[Aib]QILAQV-NH2)
Emax (% I) (CFR1R receptor): 0 % I | EC50 (CFR1R receptor): > 250 nM | EC50 (human CRF2a receptor): 0.49 nM

— patent US20260001928A1 (CORTERIA PHARMACEUTICALS, priority 2022, published 2026)
